The test in a line: Antagonist activity at P2Y12 receptor in human platelet rich plasma assessed as inhibition of ADP-induced platelet aggregation by light transmission aggregometry.

Usually IC50 stands for the concentration that inhibits the measured activity by half.

`CCCCCOC(=O)N1CCN(C(=O)[C@H](CCC(=O)O)NC(=O)c2cc(OCC3CCNCC3)nc(-c3ccccc3)n2)CC1` [(S)-5-oxo-5-(4-(pentyloxycarbonyl)piperazin-1-yl)-4-(2-phenyl-6-(piperidin-4-ylmethoxy)pyrimidine-4-carboxamido)pentanoic acid]: the IC50 is 1700 nM.
In the case of `CCCCCOC(=O)N1CCN(C(=O)[C@H](CCC(=O)O)NC(=O)c2cc(N3CCC(CCOC)CC3)nc(-c3ccccc3)n2)CC1` [(S)-4-(6-(4-(2-methoxyethyl)piperidin-1-yl)-2-phenylpyrimidine-4-carboxamido)-5-oxo-5-(4-(pentyloxycarbonyl)piperazin-1-yl)pentanoic acid] it was 6300 nM; in that of `CCCCCOC(=O)N1CCN(C(=O)[C@H](CCC(=O)O)NC(=O)c2nc(-c3ccccc3)cc(N3CCN(CC(=O)N(C)C)CC3)n2)CC1` [(S)-4-(4-(4-(2-(dimethylamino)-2-oxoethyl)piperazin-1-yl)-6-phenylpyrimidine-2-carboxamido)-5-oxo-5-(4-(pentyloxycarbonyl)piperazin-1-yl)pentanoic acid], 3000 nM; in that of `CCCCCOC(=O)N1CCN(C(=O)[C@H](CCC(=O)O)NC(=O)c2cc(NCCOC)nc(-c3ccccc3)n2)CC1` [(S)-4-(6-(2-methoxyethylamino)-2-phenylpyrimidine-4-carboxamido)-5-oxo-5-(4-(pentyloxycarbonyl)piperazin-1-yl)pentanoic acid], 2600 nM.
For `CCCCCOC(=O)N1CCN(C(=O)[C@H](CCC(=O)O)NC(=O)c2cc(N3CCC(C(=O)N(C)C)CC3)nc(-c3ccccc3)n2)CC1` [(S)-4-(6-(4-(dimethylcarbamoyl)piperidin-1-yl)-2-phenylpyrimidine-4-carboxamido)-5-oxo-5-(4-(pentyloxycarbonyl)piperazin-1-yl)pentanoic acid] the value was 370 nM; for `CCCCCOC(=O)N1CCN(C(=O)[C@H](CCC(=O)O)NC(=O)c2cc(N3CCC(OC)CC3)nc(-c3ccccc3)n2)CC1` [(S)-4-(6-(4-methoxypiperidin-1-yl)-2-phenylpyrimidine-4-carboxamido)-5-oxo-5-(4-(pentyloxycarbonyl)piperazin-1-yl)pentanoic acid], 2700 nM.
In the case of `CCCCCOC(=O)N1CCN(C(=O)[C@H](CCC(=O)O)NC(=O)c2nc(OCC3CCNCC3)cc(-c3ccccc3)n2)CC1` [(S)-5-oxo-5-(4-(pentyloxycarbonyl)piperazin-1-yl)-4-(4-phenyl-6-(piperidin-4-ylmethoxy)pyrimidine-2-carboxamido)pentanoic acid] it was 9400 nM; in that of `CCCCCOC(=O)N1CCN(C(=O)[C@H](CCC(=O)O)NC(=O)c2nc(-c3ccccc3)cc(N3CCC(CN)CC3)n2)CC1` [(S)-4-(4-(4-(aminomethyl)piperidin-1-yl)-6-phenylpyrimidine-2-carboxamido)-5-oxo-5-(4-(pentyloxycarbonyl)piperazin-1-yl)pentanoic acid], 770 nM; in that of `CCCCCOC(=O)N1CCN(C(=O)[C@H](CCC(=O)O)NC(=O)c2cc(N3CCC(N4CCCC4)CC3)nc(-c3ccccc3)n2)CC1` [(S)-5-oxo-5-(4-(pentyloxycarbonyl)piperazin-1-yl)-4-(2-phenyl-6-(4-(pyrrolidin-1-yl)piperidin-1-yl)pyrimidine-4-carboxamido)pentanoic acid], 510 nM.
For `CCCCCOC(=O)N1CCN(C(=O)[C@H](CCC(=O)O)NC(=O)c2cc(N3CCC(CCN(C)C)CC3)nc(-c3ccccc3)n2)CC1` [(S)-4-(6-(4-(2-(dimethylamino)ethyl)piperidin-1-yl)-2-phenylpyrimidine-4-carboxamido)-5-oxo-5-(4-(pentyloxycarbonyl)piperazin-1-yl)pentanoic acid], the IC50 is 400 nM.
For `CCCCCOC(=O)N1CCN(C(=O)[C@H](CCC(=O)O)NC(=O)c2cc(N3CCC(CN(CC)CC)CC3)nc(-c3ccccc3)n2)CC1` [(4S)-4-[(6-{4-[(diethylamino)methyl]piperidin-1-yl}-2-phenylpyrimidin-4-yl)formamido]-5-oxo-5-{4-[(pentyloxy)carbonyl]piperazin-1-yl}pentanoic acid] the value was 860 nM.
As to `CCCCCOC(=O)N1CCN(C(=O)[C@H](CCC(=O)O)NC(=O)c2nc(-c3ccccc3)cc(N3CCC(N4CCCC4)CC3)n2)CC1` [(S)-5-oxo-5-(4-(pentyloxycarbonyl)piperazin-1-yl)-4-(4-phenyl-6-(4-(pyrrolidin-1-yl)piperidin-1-yl)pyrimidine-2-carboxamido)pentanoic acid], the IC50 was 2100 nM.
For `CCCCCOC(=O)N1CCN(C(=O)[C@H](CCC(=O)O)NC(=O)c2cc(N3CCC(CNC)CC3)nc(-c3ccccc3)n2)CC1` [(S)-4-(6-(4-((methylamino)methyl)piperidin-1-yl)-2-phenylpyrimidine-4-carboxamido)-5-oxo-5-(4-(pentyloxycarbonyl)piperazin-1-yl)pentanoic acid], the IC50 is 740 nM.
For `CCCCCOC(=O)N1CCN(C(=O)[C@H](CCC(=O)O)NC(=O)c2cc(N3CCC(CN)CC3)nc(-c3ccccc3)n2)CC1` [(S)-4-(6-(4-(aminomethyl)piperidin-1-yl)-2-phenylpyrimidine-4-carboxamido)-5-oxo-5-(4-(pentyloxycarbonyl)piperazin-1-yl)pentanoic acid] the value was 490 nM; for `CCCCOC(=O)N1CCN(C(=O)[C@H](CCC(=O)O)NC(=O)c2cc(OCCN(CC)CC)nc(-c3ccccc3)n2)CC1` [(S)-5-(4-(butoxycarbonyl)piperazin-1-yl)-4-(6-(2-(diethylamino)ethoxy)-2-phenylpyrimidine-4-carboxamido)-5-oxopentanoic acid], 3000 nM.
In the case of `CCCCCOC(=O)N1CCN(C(=O)[C@H](CCC(=O)O)NC(=O)c2nc(-c3ccccc3)cc(N3CCN(C)CC3)n2)CC1` [(S)-4-(4-(4-methylpiperazin-1-yl)-6-phenylpyrimidine-2-carboxamido)-5-oxo-5-(4-(pentyloxycarbonyl)piperazin-1-yl)pentanoic acid] it was 8100 nM.

The values above are taken from BindingDB's records for doi:10.1016/j.bmcl.2009.09.017 (Pfizer, 2009).
